Measured values from the supplement of paper PMC10307832.

Tests used:
Assay in all cases: relative viability (nuclei count vs DMSO), 5 days (fraction); higher = more cells survive
Vandetanib + Navitoclax = compound: COc1cc2/c(=N/c3ccc(Br)cc3F)nc[nH]c2cc1OCC1CCN(C)CC1 [Vandetanib] + CC1(C)CCC(c2ccc(Cl)cc2)=C(CN2CCN(c3ccc(C(=O)NS(=O)(=O)c4ccc(N[C@H](CCN5CCOCC5)CSc5ccccc5)c(S(=O)(=O)C(F)(F)F)c4)cc3)CC2)C1 [Navitoclax] (partner 0.5 µM)
Summary of the method: (§1)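 Relative viability is defined as nuclei in treated wells over nuclei in vehicle wells. Duplicate plates were run and medians reported. Lung cancer cell lines in 1536-well plates were dosed by pin tool one day after seeding, with one drug or with a fixed anchor-drug dose plus five library-drug doses (not always all listed) in √10 steps, and nuclei were counted after 5 days.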

CUDC-101 + Bortezomib = compound: C#Cc1cccc(Nc2ncnc3cc(OC)c(OCCCCCCC(=O)NO)cc23)c1 [CUDC-101] + CC(C)C[C@H](NC(=O)[C@H](Cc1ccccc1)NC(=O)c1cnccn1)B(O)O [Bortezomib] (partner 0.002 µM)
Summary of the method: as §1

Vandetanib + Palbociclib = compound: COc1cc2/c(=N/c3ccc(Br)cc3F)nc[nH]c2cc1OCC1CCN(C)CC1 [Vandetanib] + CC(=O)c1c(C)c2cnc(Nc3ccc(N4CCNCC4)cn3)nc2n(C2CCCC2)c1=O [Palbociclib] (partner 0.5 µM)
Summary of the method: as §1

[1] = compound: C1=CC=C2C(=C1)N=C(S2)C(C#N)C3=NC(=NC=C3)NCCC4=CN=CC=C4 + CC(C)C[C@H](NC(=O)[C@H](Cc1ccccc1)NC(=O)c1cnccn1)B(O)O [Bortezomib] (partner 0.002 µM)
Summary of the method: as §1

Row | Cell Line | relative viability (Vandetanib + Navitoclax; first compound 0.02 µM) | relative viability (Vandetanib + Navitoclax; first compound 0.06325 µM) | relative viability (Vandetanib + Navitoclax; first compound 0.2 µM) | relative viability (Vandetanib + Navitoclax; first compound 0.6325 µM) | relative viability (Vandetanib + Navitoclax; first compound 2 µM) | relative viability (CUDC-101 + Bortezomib; first compound 0.01 µM) | relative viability (CUDC-101 + Bortezomib; first compound 0.03162 µM) | relative viability (CUDC-101 + Bortezomib; first compound 0.1 µM) | relative viability (CUDC-101 + Bortezomib; first compound 0.3162 µM) | relative viability (CUDC-101 + Bortezomib; first compound 1 µM) | relative viability (Vandetanib + Palbociclib; first compound 0.02 µM) | relative viability (Vandetanib + Palbociclib; first compound 0.06325 µM) | relative viability (Vandetanib + Palbociclib; first compound 0.2 µM) | relative viability (Vandetanib + Palbociclib; first compound 0.6325 µM) | relative viability (Vandetanib + Palbociclib; first compound 2 µM) | relative viability ([1]; first compound 0.005 µM) | relative viability ([1]; first compound 0.01581 µM) | relative viability ([1]; first compound 0.05 µM) | relative viability ([1]; first compound 0.1581 µM) | relative viability ([1]; first compound 0.5 µM)
1 | PC-14 | 1.02 | 0.953 | 1.07 | 0.504 | 0.307 | 1.07 | 0.978 | 0.89 | 0.596 | 0.219 | 0.536 | 0.436 | 0.0488 | 0.117 | 0.0605 | 0.665 | 1.12 | 0.9 | 0.965 | 0.679
2 | H3255 | 0.5 | 0.421 | 0.332 | 0.161 | 0.108 | 0.743 | 0.736 | 0.32 | 0.541 | 0.186 | 0.316 | 0.311 | 0.32 | 0.298 | 0.245 | 0.705 | 0.696 | 0.694 | 0.837 | 0.749
3 | NCI-H441 | 0.627 | 0.529 | 0.754 | 0.368 | 0.578 | 0.662 | 0.433 | 0.541 | 0.593 | 0.335 | 0.221 | 0.253 | 0.21 | 0.197 | 0.171 |  | 0.414 | 0.679 | 0.912 | 0.743
4 | SW 1573 | 1.03 | 0.895 | 1.25 | 0.862 | 0.993 | 1.23 | 1.13 | 1.13 | 1.27 | 0.914 | 0.413 | 0.421 |  | 0.29 | 0.403 | 0.659 | 1.26 |  | 1.1 | 0.936
5 | LU99A | 0.794 | 0.73 | 0.734 | 0.679 | 0.761 | 1.36 | 1.14 | 1.04 | 0.998 | 0.635 | 0.378 | 0.428 | 0.337 | 0.359 | 0.376 | 1.08 | 1.14 | 1.1 | 1.27 | 1.43
6 | NCI-H322M | 1.14 | 1.1 | 1.24 | 1.04 | 1.15 | 1.15 | 1.44 | 1.18 | 1.08 | 0.776 | 0.484 | 0.457 | 0.494 | 0.446 | 0.414 | 0.947 | 1.31 | 1.21 | 1.32 | 1.23
7 | COR-L23 | 0.95 | 0.915 | 0.114 | 1.07 | 0.954 | 1.1 | 0.967 | 0.957 | 0.895 | 0.647 | 0.345 | 0.27 | 0.294 | 0.318 | 0.268 | 0.891 | 1 | 1.08 | 1.16 | 0.925
8 | HARA | 1.1 | 0.996 | 1.13 | 1.07 | 1.15 | 1.21 | 1.09 | 1.08 | 0.918 | 0.709 | 0.261 | 0.224 | 0.225 | 0.293 | 0.221 | 1.22 | 1.04 | 1.14 | 1.18 | 0.859
9 | LXF-289 | 0.94 | 0.921 | 1 | 0.937 | 0.934 | 1.02 | 0.987 | 0.972 | 0.953 | 0.704 | 0.588 | 0.565 | 0.518 | 0.575 | 0.558 | 0.888 | 1.03 | 1.02 | 1.06 | 0.717
10 | 201T | 1.1 | 1.19 | 1.2 | 1.15 | 1.19 | 1.08 | 1.06 | 1.09 | 1.11 | 1.08 | 0.35 | 0.353 | 0.332 | 0.314 | 0.335 | 1.1 | 1.09 | 1.09 | 1.09 | 1.11
11 | NCI-H520 | 0.946 | 1.04 | 1.08 | 1.07 | 1.04 | 0.761 |  | 0.253 | 0.252 | 0.116 | 0.254 | 0.196 | 0.293 | 0.273 | 0.256 | 0.348 | 0.526 | 0.577 | 1.27 | 0.406
12 | RERF-LC-KJ | 0.952 | 0.746 | 0.835 | 1.06 | 0.605 | 1.2 | 1.07 | 1.09 | 1.14 | 0.97 | 1.05 | 1.03 | 0.673 | 0.993 | 0.869 | 1.02 | 1.12 | 0.971 | 1.16 | 0.905
13 | NCI-H1975 | 1.14 | 1.13 | 1.13 | 0.992 | 1.1 | 0.418 | 0.361 | 0.427 | 0.362 | 0.165 | 0.539 | 0.542 | 0.593 | 0.585 | 0.61 | 0.377 | 0.41 | 0.367 | 0.414 | 0.307
14 | PC-3 [JPC-3] | 0.783 | 0.738 | 0.777 | 0.719 | 0.451 | 0.885 | 0.927 | 0.779 | 0.642 | 0.629 | 0.509 | 0.527 | 0.592 | 0.553 | 0.464 | 0.527 | 0.854 | 0.826 | 0.923 | 0.81
15 | EPLC-272H | 1.06 | 1.03 | 1.14 | 1 | 1.09 | 0.729 | 1 | 0.882 | 0.627 | 0.384 | 0.329 | 0.321 | 0.329 | 0.282 | 0.311 | 0.772 | 0.777 | 0.958 | 1.03 | 0.738
